{
  "source": "paper PMC11801377",
  "about": "“A uniquely efficacious type of CFTR corrector with complementary mode of action” (Science Advances, 2024)",
  "biological_target": "T1, WT-CFTR (Homo sapiens, UniProt P13569)",
  "T1 construct": "host or cells: CFBE41o-",
  "T1 sequence (P13569 whole entry)": "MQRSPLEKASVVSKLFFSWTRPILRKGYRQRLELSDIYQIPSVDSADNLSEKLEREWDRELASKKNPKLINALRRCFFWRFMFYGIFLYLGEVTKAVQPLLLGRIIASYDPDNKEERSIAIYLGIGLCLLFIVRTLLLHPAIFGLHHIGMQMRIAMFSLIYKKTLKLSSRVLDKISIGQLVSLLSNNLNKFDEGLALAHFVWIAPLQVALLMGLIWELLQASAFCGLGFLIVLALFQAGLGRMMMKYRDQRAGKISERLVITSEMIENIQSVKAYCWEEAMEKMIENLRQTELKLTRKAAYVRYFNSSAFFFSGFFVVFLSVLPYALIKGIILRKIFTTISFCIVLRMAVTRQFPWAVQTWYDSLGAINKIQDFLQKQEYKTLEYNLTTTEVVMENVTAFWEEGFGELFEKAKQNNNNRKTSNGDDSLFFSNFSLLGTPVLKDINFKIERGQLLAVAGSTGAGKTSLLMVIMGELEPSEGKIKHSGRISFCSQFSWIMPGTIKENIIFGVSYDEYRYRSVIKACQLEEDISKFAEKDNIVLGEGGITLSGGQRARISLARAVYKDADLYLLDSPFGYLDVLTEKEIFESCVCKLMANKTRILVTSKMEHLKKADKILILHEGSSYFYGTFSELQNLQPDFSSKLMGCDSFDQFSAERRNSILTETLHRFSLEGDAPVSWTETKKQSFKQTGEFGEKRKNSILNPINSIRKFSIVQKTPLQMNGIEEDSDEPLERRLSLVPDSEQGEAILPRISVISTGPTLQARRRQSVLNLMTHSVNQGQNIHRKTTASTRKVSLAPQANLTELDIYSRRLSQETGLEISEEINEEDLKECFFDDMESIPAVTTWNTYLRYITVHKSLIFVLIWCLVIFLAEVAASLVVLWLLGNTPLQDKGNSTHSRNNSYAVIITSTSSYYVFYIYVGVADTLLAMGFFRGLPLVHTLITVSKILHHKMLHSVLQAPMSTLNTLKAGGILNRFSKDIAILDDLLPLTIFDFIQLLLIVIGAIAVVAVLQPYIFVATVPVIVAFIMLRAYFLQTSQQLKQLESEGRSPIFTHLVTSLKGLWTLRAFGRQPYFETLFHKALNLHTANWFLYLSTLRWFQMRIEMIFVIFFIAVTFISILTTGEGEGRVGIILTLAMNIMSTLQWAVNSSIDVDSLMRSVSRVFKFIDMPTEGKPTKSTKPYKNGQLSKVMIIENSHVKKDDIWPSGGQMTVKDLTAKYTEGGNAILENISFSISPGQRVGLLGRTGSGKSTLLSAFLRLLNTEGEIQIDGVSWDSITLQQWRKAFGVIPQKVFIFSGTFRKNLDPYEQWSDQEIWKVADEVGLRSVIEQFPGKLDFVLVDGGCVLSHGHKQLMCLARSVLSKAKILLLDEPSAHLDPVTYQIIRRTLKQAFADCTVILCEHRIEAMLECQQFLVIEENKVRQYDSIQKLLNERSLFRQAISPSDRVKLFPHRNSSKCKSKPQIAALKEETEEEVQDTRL",
  "assay": "Anti-CFTR immunoblotting (C-band) in CFBE41o- cells expressing WT-CFTR",
  "type": "cell-based",
  "conditions": "24 h",
  "method": "Cystic fibrosis bronchial epithelial (CFBE41o^−) cells stably expressing the human WT CFTR or F508del-CFTR mutant [generated in ([26])] were a gift from J. P. Clancy (University of Alabama, Birmingham) and cultured on fibronectin-coated plates (FNC coating mix; Enzo) in minimum essential medium with Earl’s salt (Thermo Fisher Scientific) containing 10% of heat-inactivated fetal bovine serum (FBS; Gibco), penicillin (100 U/ml), streptomycin ([…]) (Thermo Fisher Scientific), and puromycin (2 μg/ml; Sigma-Aldrich). […]\nAll cells were washed with ice-cold PBS and then lysed for 1 hour on ice with radioimmunoprecipitation assay (RIPA) buffer (Sigma-Aldrich, #R0278) containing 100 mM Na-fluoride, 4 mM Na-orthovanadate, 1 mM phenylmethylsulfonyl fluoride, 1 mM dithiothreitol, and benzonase (100 U/ml; Sigma-Aldrich). […] Samples were mixed with LDS sample buffer (Invitrogen), resolved by SDS-PAGE on 4 to 12% Novex bis-tris precast gels (Thermo Fisher Scientific), and analyzed by Western blotting using a wet transfer method (GenScript) and polyvinylidene difluoride membranes (Life Technologies). […] Membranes were treated with Western Lightning enhanced chemiluminescence substrate (PerkinElmer), and the chemiluminescence signal was recorded and quantified using a chemiluminescence reader and the corresponding software (Fusion FX 7, Evolution Edge, Vilber). […]",
  "data": [
    {"smiles": "COc1cc(CCNC(=O)C2CC(=O)N(C)C(CC(C)C)C(=O)N3CCCCC3C(=O)NC(Cc3ccccc3)COc3ccc4ncc(F)cc4c3C(=O)N2)on1", "note": "(stereo not shown) [IDOR-3]", "values": [
      {"measurement": "increase in WT-CFTR C-band", "value": "~ 2 fold"}
    ]}
  ]
}
